Each structure is given as a SMILES string. Converted amounts (≈) assume the structure as drawn. Read-outs that look alike come from different tables or passages of the source.

The record followed here is EP0973746B1, “SUBSTITUTED 3-CYANO QUINOLINES” (Wyeth Holdings Corporation, priority 1997, dated 1998).

In assay [1] the test system is A431. Put plainly: Inhibition of cell growth by incorporation of [3H]-thymidine, A431. The class given is cell-based, human. To be noted: Homo sapiens.
A further assay deals with HTB161. Put plainly: Inhibition of cancer cell growth as measured by cell number, HTB161. The class given is cell-based. To be noted: Homo sapiens, read-out: IC50 HTB161.
The next assay concerns A27805. Put plainly: Inhibition of cancer cell growth as measured by cell number, A27805. The class given is cell-based. To be noted: Homo sapiens, read-out: IC50 A27805.
In the next assay the test system is A2780DDP. Put plainly: Inhibition of cancer cell growth as measured by cell number, A2780DDP. The class given is cell-based. To be noted: Homo sapiens, read-out: IC50 A2780DDP.
The subject of a further assay is MIP. Put plainly: Inhibition of cancer cell growth as measured by cell number, MIP. The class given is cell-based. To be noted: Homo sapiens; cell number, Sulforhodamine B, 48 hours exposure; Table 4; read-out: IC50 MIP.
The test system of a further assay is SW620. Briefly: Inhibition of cancer cell growth as measured by cell number, SW620.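 Note: SW620 was included as a cell line with little or no EGFR or HER2/neu expression, in contrast to receptor-overexpressing lines.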 To be noted: Homo sapiens, SW-620, 48 h, Table 4. The class given is cell-based, human.
Another assay relates to CX1. Put plainly: Inhibition of cancer cell growth as measured by cell number, CX1. The class given is cell-based. To be noted: Homo sapiens, read-out: IC50 CX1.
The subject of a further assay is CACO2. Put plainly: Inhibition of cancer cell growth as measured by cell number, CACO2. The class given is cell-based. To be noted: Homo sapiens, read-out: IC50 CACO2.
The subject of another assay is HCT15. Put plainly: Inhibition of cancer cell growth as measured by cell number, HCT15. To be noted: Homo sapiens, read-out: IC50 HCT15. The class given is cell-based.
In a further assay the test system is LS174T. Put plainly: Inhibition of cancer cell growth as measured by cell number, LS174T. To be noted: Homo sapiens. The class given is cell-based.
Another assay has as its system SW948. Briefly: Inhibition of cancer cell growth as measured by cell number, SW948. The class given is cell-based. To be noted: Homo sapiens, read-out: IC50 SW948.
A further assay relates to CCL228. Put plainly: Inhibition of cancer cell growth as measured by cell number, CCL228. The class given is cell-based. To be noted: Homo sapiens, read-out: IC50 CCL228.
Another assay has as its system B7474. Put plainly: Inhibition of cancer cell growth as measured by cell number, B7474. The class given is cell-based. To be noted: Homo sapiens, read-out: IC50 B7474.
The test system of a further assay is T47D. Put plainly: Inhibition of cancer cell growth as measured by cell number, T47D. To be noted: Homo sapiens. The class given is cell-based.
The test system of the next assay is LX1. Briefly: Inhibition of cancer cell growth as measured by cell number, LX1. The class given is cell-based. To be noted: Homo sapiens, read-out: IC50 LX1.
The next assay concerns A549. Briefly: Inhibition of cancer cell growth as measured by cell number, A549. The class given is cell-based. To be noted: Homo sapiens, read-out: IC50 A549.
The next assay deals with LOX. Briefly: Inhibition of cancer cell growth as measured by cell number, LOX.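 Note: LOX cells served as a line with low or absent EGFR and HER2/neu expression, in contrast to receptor-overexpressing lines.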 The class given is cell-based, human. To be noted: Homo sapiens, LOX, 48 h, Table 6.
Assay [2] has as its system A431. Put plainly: Inhibition of cancer cell growth as measured by cell number, A431.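 Note: human A431 line, picked because it overexpresses epidermal growth factor receptor (EGFR).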 The class given is cell-based, human. To be noted: Homo sapiens, A-431, 48 h, Table 6.
Text: (§1) The cell lines were chosen since they overexpressed epidermal growth factor receptor (EGFR) (i.e. A431) or HER2/neu (SKBR3), or had little to no expression of the these receptors (SW620, LOX, MCF7).
The test system of a further assay is DU145. Put plainly: Inhibition of cancer cell growth as measured by cell number, DU145. The class given is cell-based. To be noted: Homo sapiens, read-out: IC50 DU145.
In a further assay the test system is PC3. Briefly: Inhibition of cancer cell growth as measured by cell number, PC3. To be noted: Homo sapiens, read-out: IC50 PC3. The class given is cell-based.
Another assay concerns HL60. Briefly: Inhibition of cancer cell growth as measured by cell number, HL60. The class given is cell-based. To be noted: Homo sapiens, read-out: IC50 HL60.
A further assay relates to CCRF-CFM. Put plainly: Inhibition of cancer cell growth as measured by cell number, CCRF-CFM. The class given is cell-based. To be noted: Homo sapiens, read-out: IC50 CCRF-CFM.
Assay [3] addresses epidermal growth factor receptor kinase (Homo sapiens, UniProt P00533). Put plainly: biochemical.
The next assay has as its system COLO205. Briefly: Inhibition of cancer cell growth as measured by cell number, COLO205. The class given is cell-based. To be noted: Homo sapiens, COLO 205; cell number, Sulforhodamine B, 48 hours exposure; Table 4; read-out: IC50 COLO205.
Another assay has as its system MCF7. Put plainly: Inhibition of cancer cell growth as measured by cell number, MCF7.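 Note: MCF7 was included as a line with little or no EGFR or HER2/neu expression, in contrast to the receptor-overexpressing lines of the panel.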 To be noted: Homo sapiens, MCF7, 48 h, cell number, Sulforhodamine B, 48 hours exposure; Table 5; read-out: IC50 MCF7. The class given is cell-based, human.
Another assay has as its system NEC. Briefly: Inhibition of cancer cell growth as measured by cell number, NEC. The class given is cell-based. To be noted: Homo sapiens; cell number, Sulforhodamine B, 48 hours exposure; Table 6; read-out: IC50 NEC.
A further assay relates to LNCAP. Put plainly: Inhibition of cancer cell growth as measured by cell number, LNCAP. The class given is cell-based. To be noted: Homo sapiens, cell number, Sulforhodamine B, 48 hours exposure, Table 7, read-out: IC50 LNCAP.
A further assay concerns SKBR3. Briefly: Inhibition of cancer cell growth as measured by cell number, SKBR3.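 Note: SK-BR-3 cells were selected as a line overexpressing HER2/neu.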 The class given is cell-based, human. To be noted: Homo sapiens, SK-BR-3; cell number, Sulforhodamine B, 48 hours exposure; Table 7; read-out: IC50 SKBR3.
The target in assay [4] is recombinant human MEK 1 (MAPKK) and recombinant human ERK2 (MAPK). Put plainly: Mitogen Activated Protein Kinase (MAPK) assay, two component coupled MEK 1 / ERK2.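 Note: MEK 1-activated ERK2 phosphorylates MBP or Myc peptide with 33P-ATP, filter capture and scintillation counting, inhibitor preincubated with ERK2 30 min at 0 °C, inhibition relative to uninhibited control.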 The class given is biochemical. To be noted: separate entries for the same compound = evaluated more than one time.
[5] abbreviates: cell number, Sulforhodamine B, 48 hours exposure, Table 4.

epidermal growth factor receptor kinase, sequence (P00533 25-1210): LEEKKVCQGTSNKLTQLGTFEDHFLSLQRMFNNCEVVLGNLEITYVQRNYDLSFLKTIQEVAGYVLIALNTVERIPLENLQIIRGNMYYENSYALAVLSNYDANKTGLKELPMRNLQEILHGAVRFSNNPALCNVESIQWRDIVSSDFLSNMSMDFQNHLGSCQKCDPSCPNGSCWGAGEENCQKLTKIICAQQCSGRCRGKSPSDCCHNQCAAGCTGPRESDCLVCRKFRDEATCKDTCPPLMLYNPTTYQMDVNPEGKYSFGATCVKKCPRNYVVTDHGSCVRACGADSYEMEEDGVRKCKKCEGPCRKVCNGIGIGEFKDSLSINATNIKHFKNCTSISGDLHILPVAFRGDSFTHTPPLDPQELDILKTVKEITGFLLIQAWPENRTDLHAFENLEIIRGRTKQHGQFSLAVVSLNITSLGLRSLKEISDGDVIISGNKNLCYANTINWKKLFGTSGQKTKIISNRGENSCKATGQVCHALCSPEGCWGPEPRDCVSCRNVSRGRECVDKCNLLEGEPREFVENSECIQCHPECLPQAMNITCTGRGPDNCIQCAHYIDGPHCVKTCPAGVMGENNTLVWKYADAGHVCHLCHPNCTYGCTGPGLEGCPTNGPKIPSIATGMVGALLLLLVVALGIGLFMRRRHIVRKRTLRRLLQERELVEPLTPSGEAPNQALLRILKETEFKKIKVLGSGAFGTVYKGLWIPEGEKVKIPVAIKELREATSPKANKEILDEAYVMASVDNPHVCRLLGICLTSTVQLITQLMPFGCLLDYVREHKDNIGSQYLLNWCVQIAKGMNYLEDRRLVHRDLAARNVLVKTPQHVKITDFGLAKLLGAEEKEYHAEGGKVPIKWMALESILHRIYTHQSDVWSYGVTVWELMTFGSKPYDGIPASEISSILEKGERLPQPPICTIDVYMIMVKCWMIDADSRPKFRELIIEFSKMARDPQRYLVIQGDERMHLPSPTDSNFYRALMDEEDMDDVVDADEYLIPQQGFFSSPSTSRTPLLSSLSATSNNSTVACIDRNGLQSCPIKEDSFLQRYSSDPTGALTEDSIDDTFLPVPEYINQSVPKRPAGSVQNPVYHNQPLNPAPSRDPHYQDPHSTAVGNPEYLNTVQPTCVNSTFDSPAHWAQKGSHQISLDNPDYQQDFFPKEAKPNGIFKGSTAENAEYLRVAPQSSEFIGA
Text for LOX: as §1
Text for MCF7: as §1
Text for SKBR3: as §1
Text for SW620: as §1

On to `COc1cc2[nH]cc(C#N)c(=O)c2cc1OC` [Example 33, 1,4-Dihydro-6,7-dimethoxy-4-oxo-3-quinolinecarbonitrile], for which the IC50 in the assay with A431 [1] (A-431, [3H]-thymidine incorporation, A431, read-out: IC50 A431) is 18 µM.
Consider `COc1cc2ncc(C#N)c(Nc3ccc(F)cc3)c2cc1OC` [Example 46, 4-((4-Fluorophenyl)amino]-6,7-dimethoxy-3-quinolinecarbonitrile], for which the half-inhibitory concentration (IC50) in the assay on A431 [1] (A-431, read-out: IC50 A431) is 1 µM; with HTB161 (48 h), 9.59 µg/mL (≈ 29.6 µM); with A27805 (48 h), 7.41 µg/mL (≈ 22.9 µM); in the assay on A2780DDP (48 h), 5.86 µg/mL (≈ 18.1 µM); with MIP it was 5.6 µg/mL (≈ 17.3 µM); in the assay on SW620 (read-out: IC50 SW620, cell number, Sulforhodamine B, 48 hours exposure), over 100 µg/mL. Also, the half-inhibitory concentration (IC50) was 9.7 µg/mL (≈ 30 µM) in the assay on CX1 (CX-1, 48 h); 6.03 µg/mL (≈ 18.6 µM) in the assay with CACO2 (Caco-2, 48 h); 5.6 µg/mL (≈ 17.3 µM) in the assay with HCT15 (HCT-15, 48 h); 7.13 µg/mL (≈ 22 µM) with LS174T (48 h, read-out: IC50 LS174T); over 100 µg/mL in the assay on SW948 (SW948, 48 h); 54 µg/mL (≈ 167 µM) in the assay on CCL228 (48 h). Moreover, the IC50 was 32.9 µg/mL (≈ 102 µM) in the assay with B7474 (48 h); over 100 µg/mL in the assay with T47D (48 h, read-out: IC50 T47D); 34 µg/mL (≈ 105 µM) in the assay on LX1 (LX-1, 48 h); 4.85 µg/mL (≈ 15 µM) with A549 (A549, 48 h); 5.35 µg/mL (≈ 16.5 µM) with LOX (read-out: IC50 LOX, cell number, Sulforhodamine B, 48 hours exposure); 8.01 µg/mL (≈ 24.8 µM) in the assay with A431 [2] (read-out: IC50 A431, cell number, Sulforhodamine B, 48 hours exposure). Moreover, the IC50 with DU145 (DU-145, 48 h) was 3.63 µg/mL (≈ 11.2 µM); with PC3 (PC-3, 48 h), over 100 µg/mL; in the assay on HL60 (HL-60, 48 h), 6.02 µg/mL (≈ 18.6 µM); in the assay on CCRF-CFM (48 h) it was 61.7 µg/mL (≈ 191 µM); in assay [3], 8.83 µM.
Consider `COc1cc2ncc(C#N)c(Sc3ccc(Br)cc3)c2cc1OC` [Example 50, 4-[(4-Bromophenyl)sulfanyl]-6,7-dimethoxy-3-quinolinecarbonitrile], for which the IC50 came to 4.46 µg/mL (≈ 11.1 µM) in the assay with HTB161 (setting [5]); 4.68 µg/mL (≈ 11.7 µM) in the assay on A27805 (setting [5]); 6.42 µg/mL (≈ 16 µM) with A2780DDP (setting [5]); 7.35 µg/mL (≈ 18.3 µM) in the assay with MIP; 32.9 µg/mL (≈ 81.9 µM) with SW620 (cell number, Sulforhodamine B, 48 hours exposure, read-out: IC50 SW620); 28.5 µg/mL (≈ 70.9 µM) with COLO205. In addition, the IC50 in the assay on CX1 (CX-1, cell number, Sulforhodamine B, 48 hours exposure, Table 4) is 8.72 µg/mL (≈ 21.7 µM); in the assay with CACO2 (Caco-2, cell number, Sulforhodamine B, 48 hours exposure, Table 5) it was 4.89 µg/mL (≈ 12.2 µM); in the assay on HCT15 (HCT-15, cell number, Sulforhodamine B, 48 hours exposure, Table 5) it was 8.54 µg/mL (≈ 21.3 µM); in the assay on LS174T (cell number, Sulforhodamine B, 48 hours exposure, Table 5, read-out: IC50 LS174T) it was 7.68 µg/mL (≈ 19.1 µM); with SW948 (SW948, cell number, Sulforhodamine B, 48 hours exposure, Table 5) it was 17.9 µg/mL (≈ 44.6 µM); with CCL228 (cell number, Sulforhodamine B, 48 hours exposure, Table 5), 6.79 µg/mL (≈ 16.9 µM). The half-inhibitory concentration (IC50) with MCF7 was found to be 7.14 µg/mL (≈ 17.8 µM); in the assay with B7474 (cell number, Sulforhodamine B, 48 hours exposure, Table 6), 7.17 µg/mL (≈ 17.9 µM); in the assay with T47D (cell number, Sulforhodamine B, 48 hours exposure, Table 6, read-out: IC50 T47D), 5.42 µg/mL (≈ 13.5 µM); in the assay on LX1 (LX-1, cell number, Sulforhodamine B, 48 hours exposure, Table 6), 7.21 µg/mL (≈ 18 µM); in the assay on A549 (A549, cell number, Sulforhodamine B, 48 hours exposure, Table 6), 6.82 µg/mL (≈ 17 µM); with LOX (cell number, Sulforhodamine B, 48 hours exposure, read-out: IC50 LOX), 4.7 µg/mL (≈ 11.7 µM). In addition, the IC50 is 7.35 µg/mL (≈ 18.3 µM) in the assay on A431 [2] (cell number, Sulforhodamine B, 48 hours exposure, read-out: IC50 A431); 6.89 µg/mL (≈ 17.2 µM) in the assay with NEC; 5.6 µg/mL (≈ 14 µM) with DU145 (DU-145, cell number, Sulforhodamine B, 48 hours exposure, Table 7); 8.53 µg/mL (≈ 21.2 µM) with PC3 (PC-3, cell number, Sulforhodamine B, 48 hours exposure, Table 7); 5.34 µg/mL (≈ 13.3 µM) with LNCAP; 4.72 µg/mL (≈ 11.8 µM) with HL60 (HL-60, cell number, Sulforhodamine B, 48 hours exposure, Table 7). Also, the IC50 with CCRF-CFM (cell number, Sulforhodamine B, 48 hours exposure, Table 7) was 4.6 µg/mL (≈ 11.5 µM); with SKBR3 it was 6.83 µg/mL (≈ 17 µM); in assay [4], over 100 µM; in [3] it was 5 µM.

Usually IC50 stands for the point on the concentration scale where inhibition reaches its midpoint.
